Laboratory results reported in patent US10544120B2, “Biaryl kinase inhibitors” (BRISTOL-MYERS SQUIBB COMPANY, priority 2015, dated 2020).

Molecular target: GST-Xa-hAAK1 (Homo sapiens (Human), UniProt Q2M2I8)
Test: AAK1 Kinase Assay
Assay type: biochemical
Details: bacterially expressed GST-Xa-hAAK1 3.5 nM; ATP 22 μM; fluoresceinated peptide 1.5 μM; 3 hours at room temperature; Caliper LabChip 3000
Description: The assays were performed in U-bottom 384-well plates. […] The reactions were initiated by the combination of bacterially expressed, GST-Xa-hAAK1 with substrates and test compounds. The reactions were incubated at room temperature for 3 hours and terminated by adding 60 μl of 35 mM EDTA buffer to each sample. The reactions were analyzed on the Caliper LabChip 3000 (Caliper, Hopkinton, Mass.) by electrophoretic separation of the fluorescent substrate and phosphorylated product. […] Compounds were dissolved at 10 mM in dimethylsulfoxide (DMSO) and evaluated at eleven concentrations. IC50 values were derived by non-linear regression analysis.

Chain of GST-Xa-hAAK1 (Q2M2I8 whole entry): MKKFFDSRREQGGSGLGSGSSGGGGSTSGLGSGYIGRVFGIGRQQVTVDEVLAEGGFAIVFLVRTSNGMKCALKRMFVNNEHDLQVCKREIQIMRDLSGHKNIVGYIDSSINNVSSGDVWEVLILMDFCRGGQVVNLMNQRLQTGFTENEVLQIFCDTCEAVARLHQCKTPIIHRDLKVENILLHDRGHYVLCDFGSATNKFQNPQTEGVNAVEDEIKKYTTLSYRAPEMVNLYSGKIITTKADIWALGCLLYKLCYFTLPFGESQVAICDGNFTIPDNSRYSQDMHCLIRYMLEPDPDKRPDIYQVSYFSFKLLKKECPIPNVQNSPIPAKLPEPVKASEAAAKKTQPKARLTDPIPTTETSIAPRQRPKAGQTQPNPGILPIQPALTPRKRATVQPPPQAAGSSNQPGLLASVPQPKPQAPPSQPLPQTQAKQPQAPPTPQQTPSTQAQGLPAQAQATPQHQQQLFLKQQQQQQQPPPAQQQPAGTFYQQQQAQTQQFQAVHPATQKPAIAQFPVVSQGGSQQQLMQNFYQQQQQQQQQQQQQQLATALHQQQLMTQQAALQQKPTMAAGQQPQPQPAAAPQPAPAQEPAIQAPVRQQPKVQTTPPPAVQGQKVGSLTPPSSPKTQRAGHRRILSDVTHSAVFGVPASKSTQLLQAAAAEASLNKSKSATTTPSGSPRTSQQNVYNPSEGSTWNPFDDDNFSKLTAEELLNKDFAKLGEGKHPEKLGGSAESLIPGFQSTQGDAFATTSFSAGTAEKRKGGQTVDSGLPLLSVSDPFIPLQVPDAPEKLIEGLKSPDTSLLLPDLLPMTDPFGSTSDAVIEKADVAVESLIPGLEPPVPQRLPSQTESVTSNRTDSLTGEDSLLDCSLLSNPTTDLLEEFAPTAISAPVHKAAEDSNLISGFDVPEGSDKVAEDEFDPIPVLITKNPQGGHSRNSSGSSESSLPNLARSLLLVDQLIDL

Row | SMILES | IC50 [nM]
1 | CC(C)C[C@](C)(N)COc1ccc(-c2cc(Cl)ncn2)cc1C(F)(F)F [Example 442, (S)-1-(4-(6-chloropyrimidin-4-yl)-2-(trifluoromethyl)phenoxy)-2,4-dimethylpentan-2-amine] | 19
2 | Cc1nccc(-c2ccc(OC[C@@](C)(N)CC(C)C)c(C#N)c2)n1 [Example 458, (S)-2-(2-amino-2,4-dimethylpentyloxy)-5-(2-methylpyrimidin-4-yl) benzonitrile] | 1.5
3 | COC(=O)Nc1nccc(-c2cnc(OC[C@](C)(N)CC(C)C)c(C)c2)n1 [Example 372, (R)-methyl (4-(6-((2-amino-2,4-dimethylpentyl)oxy)-5-methylpyridin-3-yl)pyrimidin-2-yl)carbamate] | 236
4 | Cc1nccc(-c2ccc(OC[C@@](C)(N)CC(C)C)c(C(F)(F)F)n2)n1 [Example 454, (S)-2,4-dimethyl-1-((6-(2-methylpyrimidin-4-yl)-2-(trifluoromethyl)pyridin-3-yl)oxy)pentan-2-amine] | 2.4
5 | Cc1nccc(-c2ccc(OCC(N)(CC(C)C)C(F)(F)F)c(C)n2)n1 (single isomer, unassigned) [Example 359, 1,1,1-trifluoro-4-methyl-2-(((2-methyl-6-(2-methylpyrimidin-4-yl)pyridin-3-yl)oxy)methyl)pentan-2-amine] | 865
6 | CC(C)C[C@](C)(N)COc1ccc(-c2ccnc(C(C)C)n2)cc1Cl [Example 480, (S)-1-(2-chloro-4-(2-isopropylpyrimidin-4-yl)phenoxy)-2,4-dimethylpentan-2-amine] | 18
7 | Cc1cc2c(-c3ccc(OC[C@@](C)(N)CC(C)C)c(C#N)c3)ccnc2[nH]1 [Example 328, (S)-2-((2-amino-2,4-dimethylpentyl)oxy)-5-(2-methyl-1H-pyrrolo[2,3-b]pyridin-4-yl)benzonitrile] | 0.4
8 | CC(C)C[C@](C)(N)COc1ccc(-c2ccnc(C(F)(F)F)c2)nc1C(F)F [Example 356, (S)-1-((6-(difluoromethyl)-2′-(trifluoromethyl)-[2,4′-bipyridin]-5-yl)oxy)-2,4-dimethylpentan-2-amine] | 82
9 | COC(=O)Nc1cc(-c2ccc(OC[C@@](C)(N)CC(C)C)c(C)c2)ncn1 [Example 433, (S)-methyl (6-(4-((2-amino-2,4-dimethylpentyl)oxy)-3-methylphenyl)pyrimidin-4-yl)carbamate] | 1.8
10 | Cc1cc(-c2ccnc(Cl)n2)ccc1OC[C@@](C)(N)CC(C)C [Example 367, (S)-1-(4-(2-chloropyrimidin-4-yl)-2-methylphenoxy)-2,4-dimethylpentan-2-amine] | 4.5
11 | CC(C)C[C@](C)(N)COc1ccc(-c2ccnc(N)c2)cc1C(F)(F)F [Example 297, (S)-4-(4-((2-amino-2,4-dimethylpentyl)oxy)-3-(trifluoromethyl)phenyl)pyridin-2-amine] | 0.3
12 | CC(C)C[C@](C)(N)COc1ccc(-c2ccnc(NC(=O)OC(C)C)n2)cc1C(F)(F)F [Example 311, (S)-isopropyl (4-(4-((2-amino-2,4-dimethylpentyl)oxy)-3-(trifluoromethyl)phenyl)pyrimidin-2-yl)carbamate] | 3.9
13 | Cc1cc(-c2ccc(OC[C@@](C)(N)CC(C)C)c(C(F)(F)F)c2)nc(C)n1 [Example 479, (S)-1-(4-(2,6-dimethylpyrimidin-4-yl)-2-(trifluoromethyl)phenoxy)-2,4-dimethylpentan-2-amine] | 533
14 | CC(C)C[C@](C)(N)COc1cc(F)c(-c2ccnc(C(F)F)c2)cc1F [Example 510, (S)-1-(4-(2-(difluoromethyl)pyridin-4-yl)-2,5-difluorophenoxy)-2,4-dimethylpentan-2-amine] | 19
15 | Cc1nccc(-c2cnc(OC[C@@](C)(N)CC(C)C)c(-c3cnco3)c2)n1 [Example 298, (S)-2,4-dimethyl-1-((5-(2-methylpyrimidin-4-yl)-3-(oxazol-5-yl)pyridin-2-yl)oxy)pentan-2-amine] | 45
16 | COC(=O)Nc1cc(-c2cnc(OC[C@@](C)(N)CC(C)C)c(Cl)c2)ncn1 [Example 437, (S)-methyl (6-(6-((2-amino-2,4-dimethylpentyl)oxy)-5-chloropyridin-3-yl)pyrimidin-4-yl)carbamate] | 2.2
17 | Cc1nccc(-c2ccc(OC[C@@](C)(N)CC(C)C)c(F)c2F)n1 [Example 511, (S)-1-(2,3-difluoro-4-(2-methylpyrimidin-4-yl)phenoxy)-2,4-dimethylpentan-2-amine] | 5.1
18 | Cc1nccc(-c2ccc(OC[C@@](C)(N)CC(C)C)c(F)c2)n1 [Example 462, (S)-1-(2-fluoro-4-(2-methylpyrimidin-4-yl)phenoxy)-2,4-dimethylpentan-2-amine] | 21
19 | Cc1cc2c(-c3ccc(OC[C@@](C)(N)CC(C)C)c(C(F)(F)F)c3)ccnc2[nH]1 [Example 327, (S)-2,4-dimethyl-1-(4-(2-methyl-1H-pyrrolo[2,3-b]pyridin-4-yl)-2-(trifluoromethyl)phenoxy)pentan-2-amine] | 0.8

Row | SMILES | IC50 [nM]
20 | CC(C)C[C@](C)(N)COc1ccc(-c2ccnc(C(F)(F)F)n2)cc1Cl [Example 465, (S)-1-(2-chloro-4-(2-(trifluoromethyl)pyrimidin-4-yl)phenoxy)-2,4-dimethylpentan-2-amine] | 3.6
21 | CC(C)CCC(=O)Nc1cc(-c2ccc(OC[C@@](C)(N)CC(C)C)c(C(F)(F)F)c2)ccn1 [Example 397, (S)-N-(4-(4-((2-amino-2,4-dimethylpentyl)oxy)-3-(trifluoromethyl)phenyl)pyridin-2-yl)-4-methylpentanamide] | 0.7
22 | COC(=O)Nc1nccc(-c2ccc(OC[C@@](C)(N)CC(C)C)c(CF)n2)n1 [Example 388, (S)-methyl (4-(5-((2-amino-2,4-dimethylpentyl)oxy)-6-(fluoromethyl)pyridin-2-yl)pyrimidin-2-yl)carbamate] | 4.7
23 | Cc1cc(-c2ccc(OC[C@@](C)(N)CC(C)C)c(CF)n2)ccn1 [Example 320, (S)-1-((6-(fluoromethyl)-2′-methyl-[2,4′-bipyridin]-5-yl)oxy)-2,4-dimethylpentan-2-amine] | 21
24 | Cc1nccc(-c2ccc(OC[C@](C)(N)CC(C)C)c(C)n2)n1 [Example 354, (R)-2,4-dimethyl-1-((2-methyl-6-(2-methylpyrimidin-4-yl)pyridin-3-yl)oxy)pentan-2-amine] | 321
25 | Cc1cc(-c2ccnc(C(F)(F)F)c2)ncc1OC[C@@](C)(N)CC(C)C [Example 349, (S)-2,4-dimethyl-1-((4-methyl-2′-(trifluoromethyl)-[2,4′-bipyridin]-5-yl)oxy)pentan-2-amine] | 70
26 | Cc1nccc(-c2ccc(OC[C@@](C)(N)CC(C)C)c(C)n2)n1 [Example 484, (S)-2,4-dimethyl-1-(2-methyl-6-(2-methylpyrimidin-4-yl)pyridin-3-yloxy)pentan-2-amine] | 3.2
27 | Cc1cc(-c2ccc(OC[C@@](C)(N)CC(C)C)c(Cl)c2)ncn1 [Example 308, (S)-1-(2-chloro-4-(6-methylpyrimidin-4-yl)phenoxy)-2,4-dimethylpentan-2-amine] | 12
28 | Cc1nc(-c2cc(N)ncn2)ccc1OC[C@@](C)(N)CC(C)C [Example 343, (S)-6-(5-((2-amino-2,4-dimethylpentyl)oxy)-6-methylpyridin-2-yl)pyrimidin-4-amine] | 19
29 | Cc1cc(-c2cc(C(F)F)c(OC[C@@](C)(N)CC(C)C)cn2)ncn1 [Example 318, (S)-1-((4-(difluoromethyl)-6-(6-methylpyrimidin-4-yl)pyridin-3-yl)oxy)-2,4-dimethylpentan-2-amine] | 9.7
30 | Cc1nc(-c2ccnc(N)n2)ccc1OC[C@@](C)(N)CC(C)C [Example 313, (S)-4-(5-((2-amino-2,4-dimethylpentyl)oxy)-6-methylpyridin-2-yl)pyrimidin-2-amine] | 2.4
31 | CC(C)C[C@](C)(N)COc1ccc(-c2cc(Cl)ncn2)cc1C#N [Example 441, (S)-2-((2-amino-2,4-dimethylpentyl)oxy)-5-(6-chloropyrimidin-4-yl)benzonitrile] | 15
32 | Cc1cc(-c2cnc(OC[C@@](C)(N)CC(C)C)c(C)c2)ncn1 [Example 446, (S)-2,4-dimethyl-1-((3-methyl-5-(6-methylpyrimidin-4-yl)pyridin-2-yl)oxy)pentan-2-amine] | 317
33 | Cc1nccc(-c2cc(F)c(OC[C@@](C)(N)CC(C)C)cc2F)n1 [Example 506, (S)-1-(2,5-difluoro-4-(2-methylpyrimidin-4-yl)phenoxy)-2,4-dimethylpentan-2-amine] | 134
34 | Cc1nccc(-c2ccc(OCC(N)(CC(C)C)C(F)(F)F)c(C)n2)n1 (single isomer, unassigned) [Example 360, 1,1,1-trifluoro-4-methyl-2-(((2-methyl-6-(2-methylpyrimidin-4-yl)pyridin-3-yl)oxy)methyl)pentan-2-amine] | 1250
35 | Cc1nccc(-c2ccc(OCC(N)(CC(C)C)C(F)(F)F)c(C)n2)n1 (stereo not shown) [Example 491, 1,1,1-trifluoro-4-methyl-2-(((2-methyl-6-(2-methylpyrimidin-4-yl)pyridin-3-yl)oxy)methyl)pentan-2-amine] | 789
36 | CC(C)CC1(COc2ccc(-c3ccnc(C(F)F)c3)nc2C(F)F)CCN1 (stereo not shown) [Example 326, 2′,6-bis(difluoromethyl)-5-((2-isobutylazetidin-2-yl)methoxy)-2,4′-bipyridine] | 42
37 | Cc1nc(-c2ccnc(N)c2)ccc1OC[C@@](C)(N)CC(C)C [Example 422, (S)-5-((2-amino-2,4-dimethylpentyl)oxy)-6-methyl-[2,4′-bipyridin]-2′-amine] | 3.5
